Read-outs that look alike come from different tables or passages of the source.
Assays:
[1] = target: T1, FLT-3 (Homo sapiens, UniProt P36888); test: FLT-3 inhibition assay, radiometric filter-binding; type: biochemical
T1 sequence (P36888 27-993): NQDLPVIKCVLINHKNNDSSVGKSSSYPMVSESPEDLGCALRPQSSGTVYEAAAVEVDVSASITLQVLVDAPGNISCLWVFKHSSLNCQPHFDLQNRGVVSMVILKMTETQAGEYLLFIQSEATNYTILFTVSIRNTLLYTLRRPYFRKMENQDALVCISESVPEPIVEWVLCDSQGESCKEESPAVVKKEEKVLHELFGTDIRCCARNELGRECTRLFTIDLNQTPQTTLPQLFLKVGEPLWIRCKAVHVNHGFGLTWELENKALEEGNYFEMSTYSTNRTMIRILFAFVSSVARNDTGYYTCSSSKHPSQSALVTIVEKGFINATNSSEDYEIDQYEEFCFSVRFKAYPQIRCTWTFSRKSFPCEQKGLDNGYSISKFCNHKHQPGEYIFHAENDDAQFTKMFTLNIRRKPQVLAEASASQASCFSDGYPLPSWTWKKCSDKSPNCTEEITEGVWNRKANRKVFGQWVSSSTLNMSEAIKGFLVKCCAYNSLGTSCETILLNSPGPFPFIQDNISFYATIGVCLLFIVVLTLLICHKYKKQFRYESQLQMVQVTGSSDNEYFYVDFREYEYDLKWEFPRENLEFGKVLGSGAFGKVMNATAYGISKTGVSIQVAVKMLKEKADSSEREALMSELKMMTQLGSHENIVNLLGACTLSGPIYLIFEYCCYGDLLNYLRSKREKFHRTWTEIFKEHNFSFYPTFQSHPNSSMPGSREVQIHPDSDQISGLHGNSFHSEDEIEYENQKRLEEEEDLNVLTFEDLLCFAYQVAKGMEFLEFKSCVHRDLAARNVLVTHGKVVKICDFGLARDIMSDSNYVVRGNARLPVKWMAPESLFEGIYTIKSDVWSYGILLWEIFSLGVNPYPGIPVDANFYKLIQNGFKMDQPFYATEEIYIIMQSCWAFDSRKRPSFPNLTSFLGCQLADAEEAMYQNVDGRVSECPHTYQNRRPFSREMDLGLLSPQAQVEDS

[2] = system: Colo205 cells; test: Analysis of cell proliferation and viability; type: cell-based; details: Homo sapiens, read-out: IC50 value
[3] = target: T2, Aurora-2 (Aurora A) (Homo sapiens, UniProt O14965); test: Aurora-2 (Aurora A) inhibition assay, coupled enzyme; type: biochemical
T2 sequence (O14965 1-403): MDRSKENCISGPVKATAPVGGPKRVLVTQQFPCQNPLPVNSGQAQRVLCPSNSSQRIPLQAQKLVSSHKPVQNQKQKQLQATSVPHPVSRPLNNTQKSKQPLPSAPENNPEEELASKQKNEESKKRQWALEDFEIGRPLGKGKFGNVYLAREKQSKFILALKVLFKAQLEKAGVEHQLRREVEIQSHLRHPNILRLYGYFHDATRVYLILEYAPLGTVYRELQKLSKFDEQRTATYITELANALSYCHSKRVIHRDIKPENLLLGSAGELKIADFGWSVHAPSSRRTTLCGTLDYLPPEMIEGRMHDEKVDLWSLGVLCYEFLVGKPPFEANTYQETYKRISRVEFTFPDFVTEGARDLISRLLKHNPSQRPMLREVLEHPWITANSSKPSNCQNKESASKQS
Procedure, shortened: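 These rates came from NADH consumption coupled through pyruvate kinase and lactate dehydrogenase (100 mM Hepes pH 7.5, 10 mM MgCl2, 300 μM NADH). Aurora-2 was present at 40 nM, and the reaction ran at 30 °C after a 10 min preincubation.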

[4] = COLO 205, Colo205 cells, incubated for 96 hours
[5] = read-out: Aurora A kinase Ki value
[6] = COLO 205, Colo205 cells, incubated for 72 hours

Compound	Ki ([1]; read-out: FLT-3 Ki value)	IC50 [2, 4]	Ki [3, 5]	Ki [1]	IC50 [2, 6]	Ki [3]	IC50 ([2]; COLO 205, 96 h)
CCC(=O)Nc1ccc(Sc2nc(Nc3cc(C)n[nH]3)cc(N3CC(C)(O)C3)n2)cc1 [Compound 71]	50 to 150 nM	≤ 50 nM	1 to 5 nM	–	–	–	–
Cc1cc(Nc2cc(N3CCC3)nc(Sc3ccc(C(=O)NC4CCCC4)cc3)n2)n[nH]1 [Compound 23]	150 to 1000 nM	> 1000 nM	5 to 200 nM	–	–	–	–
CC(=O)Nc1cccc(Sc2nc(Nc3cc(C)n[nH]3)cc(N3CC(F)(C4CC4)C3)n2)c1 [Compound 188]	–	–	5 to 200 nM	50 to 150 nM	> 200 nM	–	–
Cc1cc(Nc2cc(N3CC(F)(C4CC4)C3)nc(Sc3ccc4nc(C(F)(F)F)cn4c3)n2)[nH]n1 [Compound 190]	–	–	1 to 5 nM	150 to 1000 nM	30 to 200 nM	–	–
CC1=NN=C(Nc2cc(N3CCC3)nc(Sc3ccc(NC(=O)c4ccccc4)cc3)n2)C1 [Compound 52]	150 to 1000 nM	50 to 1000 nM	5 to 200 nM	–	–	–	–
Cc1ccc(S(=O)(=O)Nc2ccc(Sc3nc(Nc4cc(C)[nH]n4)cc(N4CCC4)n3)cc2)cc1 [Compound 27]	–	> 1000 nM	–	50 to 150 nM	–	1 to 5 nM	–
Cc1cc(Nc2cc(N3CCC3)nc(Sc3ccc(NC(=O)c4nccn4C)cc3)n2)n[nH]1 [Compound 166]	–	> 1000 nM	5 to 200 nM	150 to 1000 nM	–	–	–
CCC(=O)Nc1ccc(Sc2nc(Nc3cc(C)n[nH]3)cc(N3CC(O)(C(C)(C)C)C3)n2)cc1 [Compound 81]	≤ 50 nM	≤ 50 nM	≤ 1 nM	–	≤ 30 nM	–	–
Cc1cnc(Nc2cc(N3CCC3)nc(Sc3ccc(NC(=O)C4CC4)cc3)n2)s1 [Compound 4]	–	50 to 1000 nM	1 to 5 nM	50 to 150 nM	–	–	–
Cc1cc(Nc2cc(N3CCC3)nc(Sc3ccc(NC(=O)C(C)CC(F)(F)F)cc3)n2)[nH]n1 (centres unmarked) [Compound 127]	150 to 1000 nM	–	1 to 5 nM	–	30 to 200 nM	–	–
Cc1ccc(C(=O)Nc2ccc(Sc3nc(Nc4cc(C)[nH]n4)cc(N4CCC4)n3)cc2)cc1 [Compound 28]	–	50 to 1000 nM	–	150 to 1000 nM	–	1 to 5 nM	–
Cc1cc(Nc2cc(N3CCC3)nc(Sc3ccc(NC(=O)c4ccc(F)cc4F)cc3)n2)n[nH]1 [Compound 44]	–	50 to 1000 nM	1 to 5 nM	150 to 1000 nM	–	–	–
Cc1cc(Nc2cc(N3CCC3)nc(Sc3ccc(NC(=O)c4cc(C)nc(Cl)c4)cc3)n2)[nH]n1 [Compound 149]	150 to 1000 nM	–	1 to 5 nM	–	> 200 nM	–	–
Cc1cc(Nc2cc(N3CCC3)nc(Sc3ccc(NC(=O)c4ccncc4C(F)(F)F)cc3)n2)[nH]n1 [Compound 146]	–	–	≤ 1 nM	150 to 1000 nM	≤ 30 nM	–	–
Cc1cc(Nc2cc(N3CC(O)(C4CC4)C3)nc(Sc3ccc4ccccc4c3)n2)n[nH]1 [Compound 131]	–	–	≤ 1 nM	≤ 50 nM	> 200 nM	–	–
Cc1cc(Nc2cc(N3CCC3)nc(Sc3ccc(NC(=O)OC(C)(C)C)cc3)n2)n[nH]1 [Compound 26]	–	> 1000 nM	5 to 200 nM	50 to 150 nM	–	–	–
CCC(=O)Nc1ccc(Sc2nc(Nc3cc(C)n[nH]3)cc(N3CC(C)(OC(C)(C)C)C3)n2)cc1 [Compound 96]	50 to 150 nM	≤ 50 nM	1 to 5 nM	–	–	–	–
Cc1cc(Nc2cc(N3CCC3)nc(Sc3ccc(NC(=O)CC(F)(F)F)cc3)n2)n[nH]1 [Compound 40]	–	50 to 1000 nM	≤ 1 nM	50 to 150 nM	30 to 200 nM	–	–
Cc1cc(Nc2cc(N3CC(N4CCCC4)C3)nc(Sc3ccc4ncccc4c3)n2)n[nH]1 [Compound 159]	–	–	1 to 5 nM	≤ 50 nM	≤ 30 nM	–	–
Cc1cc(Nc2cc(N3CCC3)nc(Sc3ccc(C(=O)N4CCCC4)cc3)n2)n[nH]1 [Compound 22]	–	> 1000 nM	–	50 to 150 nM	–	5 to 200 nM	–
Cc1cnc(Nc2cc(N3CC(O)C3)nc(Sc3ccc(NC(=O)C4CC4)cc3)n2)s1 [Compound 3]	–	> 1000 nM	1 to 5 nM	≤ 50 nM	–	–	–
CC1=NN=C(Nc2cc(N3CCC3)nc(Sc3ccc(NC(=O)C4CCCN4C)cc3)n2)C1 (centres unmarked) [Compound 6]	–	50 to 1000 nM	5 to 200 nM	150 to 1000 nM	–	–	–
Cc1cc(Nc2cc(N3CCC3)nc(Sc3ccc(C(=O)Nc4ccccc4Cl)cc3)n2)[nH]n1 [Compound 48]	–	50 to 1000 nM	1 to 5 nM	150 to 1000 nM	–	–	–
Cc1cc(Nc2cc(N3CCC3)nc(Sc3ccc4ccccc4c3)n2)n[nH]1 [Compound 25]	–	> 1000 nM	1 to 5 nM	≤ 50 nM	–	–	–
Cc1cc(Nc2cc(N3CC(N4CC[C@H](F)C4)C3)nc(Sc3ccc4ncccc4c3)n2)n[nH]1 [Compound 160]	–	–	–	≤ 50 nM	≤ 30 nM	≤ 1 nM	–
CCC(=O)Nc1ccc(Sc2nc(Nc3cc(C)[nH]n3)cc(N3CCC3)n2)cc1 [Compound 14]	50 to 150 nM	–	1 to 5 nM	–	–	–	50 to 1000 nM
COC1CN(c2cc(Nc3cc(C)n[nH]3)nc(Sc3ccc(NC(=O)c4ccccc4C(F)(F)F)cc3)n2)C1 [Compound 126]	–	–	≤ 1 nM	50 to 150 nM	30 to 200 nM	–	–
Cc1cc(Nc2cc(N3CCC3)nc(Sc3ccc(NC(=O)C4CCCCC4)cc3)n2)n[nH]1 [Compound 30]	150 to 1000 nM	50 to 1000 nM	1 to 5 nM	–	–	–	–
Cc1cc(Nc2cc(N3CCC3)nc(Sc3ccc(NS(C)(=O)=O)cc3)n2)[nH]n1 [Compound 150]	≤ 50 nM	–	5 to 200 nM	–	> 200 nM	–	–

Source: patent US8637511B2, “Aminopyrimidines useful as kinase inhibitors” (Vertex Pharmaceuticals Incorporated, priority 2005, dated 2014)
